Experimental findings from ChEMBL document CHEMBL5252643, “Jozibrevine D from Ancistrocladus ileboensis, the fifth alkaloid in a series of six possible atropo-diastereomeric naphthylisoquinoline dimers, showing antiparasitic and antileukemic activities” (Bioorg Med Chem Lett, 2023) are described below.

A short description of data set [1]: Selectivity index, ratio of IC50 for rat L6 cells to IC50 for Plasmodium falciparum NF54. The data set is classed as toxicity. To be noted: L6 cells versus Plasmodium falciparum NF54, read-out: Ratio IC50.
For the next data set, the system named is Plasmodium falciparum. In words: Antiplasmodial activity against Plasmodium falciparum NF54. It counts as functional, organism-based.
For the next data set, the system named is CCRF-CEM. In words: Cytotoxicity against human CCRF-CEM cells. It counts as functional, cell-based.
The subject of another data set is Trypanosoma cruzi. Description: Antitrypanosomal activity against Trypanosoma cruzi. It counts as functional, organism-based.
In another data set the test system is ADR5000 cell line. In words: Cytotoxicity against multidrug resistant human CEM/ADR5000 cells. The data set is classed as functional, cell-based.
Data set [2] is described as follows: Cytotoxicity against rat L6 cells assessed as reduction in cell viability by resazurin dye based assay. It counts as toxicity.
Data set [3] deals with Trypanosoma brucei rhodesiense. In words: Antitrypanosomal activity against Trypanosoma brucei rhodesiense. The data set is classed as functional, organism-based.
Another data set relates to Leishmania donovani. In words: Antileishmanial activity against Leishmania donovani. The data set is classed as functional, organism-based.
A short description of data set [4]: Selectivity ratio of IC50 for human CEM/ADR5000 cells to IC50 for human CCRF-CEM cells. The data set is classed as functional.

The IC50 is the concentration that gives 50% inhibition.

Turning to `COc1cccc2c(-c3ccc4c(c3O)[C@@H](C)N[C@H](C)C4)c(C)c(-c3c(C)c(-c4ccc5c(c4O)[C@@H](C)N[C@H](C)C5)c4cccc(OC)c4c3O)c(O)c12` (stereo in doubt; 4e), in data set [1], the selectivity ratio turned out to be 45.4. In addition, the IC50 in the data set with Plasmodium falciparum was determined as 0.137 µM; with CCRF-CEM it was 11.5 µM; with Trypanosoma cruzi it was 22.2 µM; with ADR5000 cell line it was 16.6 µM; in data set [2], 6.22 µM; in [3], 0.527 µM. Moreover, in the data set on Leishmania donovani, the IC50 was 105 µM. Also, the “Ratio IC50” value in data set [4] was found to be 1.45.

Turning to `COc1cccc2c(-c3ccc4c(c3O)[C@@H](C)N[C@H](C)C4)c(C)c(-c3c(C)c(-c4ccc5c(c4O)[C@@H](C)N[C@H](C)C5)c4cccc(OC)c4c3O)c(O)c12` (stereo in doubt; 4d), the IC50 in the data set with CCRF-CEM stood at 5.35 µM; in the data set with ADR5000 cell line, 7.59 µM. Also, the “Ratio IC50” value in data set [4] stood at 1.42.
